Patent publication US7157487B2, “Vla-4 inhibitors” (Daiichi Pharmaceutical Co., Ltd., priority 2000, dated 2007)
pKi: −log10 of the molar value.

Assays:
[1] = Pharmacokinetics and oral bioavailability in rats; format: in vivo; settings: Rat, oral, plasma; for AUC: LC/MS/MS; for bioavailability: read-out: F (%) oral bioavailability; for clearance: read-out: CLtot (mL/min/kg) apparent plasma clearance
Text: (§1) The pharmacokinetic parameter of the test compound orally administered to rats or dogs are described below.

[2] = Pharmacokinetics and oral bioavailability in dogs; format: in vivo; settings: 2 /kg, Dog, oral, Dose/kg 2.0, plasma; for AUC: LC/MS/MS; for bioavailability: read-out: F (%) oral bioavailability; for clearance: read-out: CLtot (mL/min/kg) apparent plasma clearance
Text: as §1

[3] = molecular target: T1, integrins haα4 and β1 (VLA-4) expressed on CHO cells (Homo sapiens, UniProt P05556+P13612); assay: In vitro Evaluation Test (1): binding of Eu3+-hVCAM-1 D1D7-IgG to CHO cells expressing integrins α4 and β1; settings: inhibition of Eu3+-hVCAM-1 D1D7-IgG binding to CHO cells expressing α4β1; Ki calculated from IC50
T1 construct: expressed in transfected cells; host or cells: CHO cells
Method in brief: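 CHO cells transduced with human α4 and β1 were grown for 2 days. They were incubated 1 h at room temperature with Eu3+-hVCAM-1 D1D7-IgG (diluted to 2 nM before addition) and compound, with or without 6% HSA, in HEPES pH 7.5 containing Ca2+, Mg2+ and 4 mM Mn2+. Time-resolved fluorescence gave IC50; Ki used a Scatchard-derived Kd (0.06–20 nM).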

[4] = Evaluation of oral bioavailability by mouse bioassay; format: in vivo; settings: 10 mg/kg oral, female Balb/C mice, serum 15 minutes after administration, read-out: Blood level
Description: A test compound was suspended or dissolved in a proper administration medium to give a concentration of 1 mg/ml. To 7 to 9 week old female Balb/C mice, 10 mg/kg of the resulting suspension or solution was orally administered. Fifteen minutes after the administration, blood was collected from the postcava under anesthesia with ether and the serum was separated from it. The concentration of each test compound was determined by estimating the serum level from a calibration curve obtained with VCAM-1/VLA-4 inhibitory activity as an index or measuring the concentration by using LC/MS/MS.

VLA-4 expressed cells = settings: literature report; cited from earlier work
[5] = test system: cardiac transplantation of rabbits; settings: literature report; cited from earlier work
VLA-4 = VLA-4 (Homo sapiens, UniProt P05556+P13612); settings: in vitro, literature report; cited from earlier work
Chain of VLA-4 (P13612 34-1032): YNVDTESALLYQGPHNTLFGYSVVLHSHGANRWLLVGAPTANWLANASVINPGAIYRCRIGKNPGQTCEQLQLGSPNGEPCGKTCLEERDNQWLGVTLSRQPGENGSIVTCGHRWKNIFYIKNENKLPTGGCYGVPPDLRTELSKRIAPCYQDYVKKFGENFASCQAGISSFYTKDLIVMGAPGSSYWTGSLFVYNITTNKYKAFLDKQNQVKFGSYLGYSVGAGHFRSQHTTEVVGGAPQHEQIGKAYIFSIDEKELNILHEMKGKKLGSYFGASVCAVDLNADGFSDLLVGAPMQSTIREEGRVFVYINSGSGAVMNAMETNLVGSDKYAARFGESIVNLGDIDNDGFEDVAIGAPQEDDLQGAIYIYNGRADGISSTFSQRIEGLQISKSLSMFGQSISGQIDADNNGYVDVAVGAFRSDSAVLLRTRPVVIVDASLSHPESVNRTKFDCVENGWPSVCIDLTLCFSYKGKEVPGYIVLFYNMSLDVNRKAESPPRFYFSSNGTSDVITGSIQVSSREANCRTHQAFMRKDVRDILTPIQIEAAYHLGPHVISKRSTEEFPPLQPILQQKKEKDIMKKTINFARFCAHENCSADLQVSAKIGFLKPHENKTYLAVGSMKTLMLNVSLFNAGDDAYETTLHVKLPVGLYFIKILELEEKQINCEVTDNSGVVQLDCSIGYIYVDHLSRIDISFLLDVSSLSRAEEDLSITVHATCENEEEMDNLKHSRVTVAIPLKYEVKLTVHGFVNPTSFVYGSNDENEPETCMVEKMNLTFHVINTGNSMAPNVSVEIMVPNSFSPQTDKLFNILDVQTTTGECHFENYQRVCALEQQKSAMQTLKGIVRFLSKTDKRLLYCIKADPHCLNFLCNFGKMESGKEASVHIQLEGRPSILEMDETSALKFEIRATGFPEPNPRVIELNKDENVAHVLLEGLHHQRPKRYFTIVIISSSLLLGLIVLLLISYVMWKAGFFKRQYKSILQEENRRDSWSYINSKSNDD
Chain of VLA-4 (P05556 21-798): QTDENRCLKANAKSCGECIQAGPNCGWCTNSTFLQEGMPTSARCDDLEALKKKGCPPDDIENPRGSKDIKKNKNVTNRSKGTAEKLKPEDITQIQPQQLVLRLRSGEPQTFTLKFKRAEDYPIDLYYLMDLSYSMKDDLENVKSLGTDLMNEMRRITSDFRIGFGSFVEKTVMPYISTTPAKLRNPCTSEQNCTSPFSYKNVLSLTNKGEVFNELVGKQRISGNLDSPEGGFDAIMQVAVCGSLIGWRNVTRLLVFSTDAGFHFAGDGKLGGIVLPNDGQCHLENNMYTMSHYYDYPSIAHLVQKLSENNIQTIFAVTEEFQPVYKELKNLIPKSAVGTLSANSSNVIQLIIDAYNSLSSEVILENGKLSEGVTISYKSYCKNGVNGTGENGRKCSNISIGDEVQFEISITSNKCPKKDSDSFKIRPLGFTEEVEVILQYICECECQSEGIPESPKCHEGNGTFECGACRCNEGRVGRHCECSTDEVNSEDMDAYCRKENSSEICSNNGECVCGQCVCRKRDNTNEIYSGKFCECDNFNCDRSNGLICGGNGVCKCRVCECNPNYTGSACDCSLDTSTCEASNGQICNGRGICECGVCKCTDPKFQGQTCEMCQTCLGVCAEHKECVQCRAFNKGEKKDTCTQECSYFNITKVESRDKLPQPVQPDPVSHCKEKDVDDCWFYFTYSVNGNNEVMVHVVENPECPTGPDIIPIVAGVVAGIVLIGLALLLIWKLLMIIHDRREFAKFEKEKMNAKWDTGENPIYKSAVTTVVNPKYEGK

T1 sequence (P13612 34-1032): as the sequence (P13612 34-1032) above
T1 sequence (P05556 21-798): as the sequence (P05556 21-798) above

| Compound | pKi [3] | concentration at 15 min [4] [ng/mL] | also measured |
| --- | --- | --- | --- |
| CO[C@H]1C[C@@H](COC2CCC(C(=O)O)CC2)N(C(=O)Cc2ccc3nc(Nc4ccccc4C)oc3c2)C1 (single isomer, unassigned) [20 (Isomer A)] | – | – | AUC ([1]; 2 /kg, Dose/kg 2.0): 152 ng·h/mL; bioavailability ([1]; 2 /kg, Dose/kg 2.0): 35%; clearance ([1]; 2 /kg, Dose/kg 2.0): 73 mL/min/kg; AUC [2]: 776 ng·h/mL; bioavailability [2]: 44%; clearance [2]: 19.1 mL/min/kg |
| Cc1ccccc1Nc1nc2ccc(CC(=O)N3C[C@@H](F)C[C@H]3COC3CCC(C(=O)O)CC3)cc2o1 (single isomer, unassigned) [21 (Isomer H)] | 8.60 | – | AUC ([1]; 5 /kg, Dose/kg 5.0): 14900 ng·h/mL; bioavailability ([1]; 5 /kg, Dose/kg 5.0): 52%; clearance ([1]; 5 /kg, Dose/kg 5.0): 3.3 mL/min/kg; AUC [2]: 760 ng·h/mL; bioavailability [2]: 40%; clearance [2]: 17.9 mL/min/kg |
| Cc1ccccc1Nc1nc2ccc(CC(=O)N3C[C@@H](Sc4ccccc4)C[C@H]3CO[C@H]3CC[C@H](C(=O)O)CC3)cc2o1 [Example 123] | 8.24 | 705 | – |
| Cn1cc(C(=O)Nc2cc(F)c(CC(=O)N3CCC[C@H]3CO[C@H]3CC[C@H](C(=O)O)CC3)cc2Cl)c2ccccc21 [Example 130, trans-4-(1-((5-Chloro-2-fluoro-4-(1-methyl-3-indolylcarbonylamino)phenyl)acetyl)-(2S)-pyrrolidinylmethoxy)-1-cyclohexanecarboxylic acid] | 8.06 | 3590 | – |
| CO[C@@H]1CN(C(=O)Cc2ccc3nc(Nc4ccccc4C)oc3c2)C[C@@H]1Oc1ccc(C(=O)O)cc1 [Example 155, 4-((4R)-Methoxy-1-((2-(2-methylphenylamino)-6-benzoxazolyl)acetyl)-(3S)-pyrrolidinyloxy)benzoic acid] | 7.70 | 571 | – |
| COC[C@H]1CC[C@@H](CO[C@H]2CC[C@@H](C(=O)O)CC2)N1C(=O)Cc1ccc2nc(Nc3cc(F)ccc3C)oc2c1F [Example 165, trans-4-(1-((2-(5-Fluoro-2-methylphenylamino)-7-fluoro-6-benzoxazolyl)acetyl)-(5R)-methoxymethyl-(2S)-pyrrolidinylmethoxy)cyclohexanecarboxylic acid] | 8.54 | 816 | – |
| COC[C@H]1CC[C@@H](CO[C@H]2CC[C@H](C(=O)O)CC2)N1C(=O)Cc1cc(Cl)c(NC(=O)c2nn(C)c3ccccc23)cc1F [Example 166, trans-4-(1-((5-Chloro-2-fluoro-4-((1-methyl-3-indazolylcarbonyl)amino)phenyl)acetyl)-(5R)-methoxymethyl-(2S)-pyrrolidinylmethoxy)cyclohexanecarboxylic acid] | 8.10 | 3070 | – |
| CO[C@H]1CCN(C(=O)Cc2cc(Cl)c(NC(=O)c3nn(C)c4ccccc34)cc2F)[C@@H]1CO[C@H]1CC[C@H](C(=O)O)CC1 [Example 169, trans-4-(1-((5-Chloro-2-fluoro-4-((1-methyl-3-indazolylcarbonyl)amino)phenyl)acetyl)-(3S)-methoxy-(2R)-pyrrolidinylmethoxy)cyclohexanecarboxylic acid] | 7.80 | 21800 | – |
| CO[C@H]1C[C@@H](CO[C@H]2CC[C@H](C(=O)O)CC2)N(C(=O)Cc2cc(Cl)c(NC(=O)c3cn(C)c4ccccc34)cc2Cl)C1 [Example 170, trans-4-(1-(2,5-Dichloro-4-((1-methyl-1H-3-indolylcarbonyl)amino)phenylacetyl)-(4S)-methoxy-(2S)-pyrrolidinylmethoxy)cyclohexanecarboxylic acid] | 8.37 | 3360 | – |
| CO[C@H]1C[C@@H](CO[C@H]2CC[C@H](C(=O)O)CC2)N(C(=O)Cc2cc(Cl)c(NC(=O)c3nsc4ccccc34)cc2F)C1 [Example 171, trans-4-(1-(5-Chloro-2-fluoro-4-((3-benzo(d)isothiazolylcarbonyl)amino)phenylacetyl)-(4S)-methoxy-(2S)-pyrrolidinylmethoxy)cyclohexanecarboxylic acid] | 8.30 | 2730 | – |
| O=C(Nc1cc(F)c(CC(=O)N2C[C@@H](F)C[C@H]2CO[C@H]2CC[C@H](C(=O)O)CC2)cc1Cl)c1n[nH]c2ccccc12 [Example 172, trans-4-(1-((5-Chloro-2-fluoro-4-(3-indazolylcarbonylamino)phenyl)acetyl)-(4S)-fluoro-(2S)-pyrrolidinylmethoxy)cyclohexanecarboxylic acid] | 8.17 | 848 | – |
| CC(C)[C@H]1CC[C@@H](CO[C@H]2CC[C@H](C(=O)O)CC2)N1C(=O)Cc1cc(Cl)c(NC(=O)c2cn(C)c3ccccc23)cc1F [Example 173, trans-4-(1-((5-Chloro-2-fluoro-4-((1-methyl-3-indolylcarbonyl)amino)phenyl)acetyl)-(5R)-isopropyl-(2S)-pyrrolidinylmethoxy)cyclohexanecarboxylic acid] | 8.00 | 3470 | – |
| CQIDSPC | – | – | inhibition of adhesion of VLA-4 expressed cells to purified VCAM-1 (VLA-4 expressed cells): succeeded in inhibiting adhesion |
| phenylacetic acid-Leu-Asp-Phe-d-Pro-amide [synthetic CS-1 tetrapeptide] | – | – | advance of coronary arterial diseases [5]: amelioration of advance of coronary arterial diseases; inhibition of leukocyte adhesion mediated by VLA-4 (VLA-4): in vitro inhibition |

Now from value to compound, other results behind:

| pKi [3] | concentration at 15 min [4] [ng/mL] | Compound | also measured |
| --- | --- | --- | --- |
| 8.19 | 2570 | CS[C@H]1C[C@@H](CO[C@H]2CC[C@H](C(=O)O)CC2)N(C(=O)Cc2cc(Cl)c(NC(=O)c3cn(C)c4ccccc34)cc2F)C1 [Example 125, trans-4-(1-((5-Chloro-2-fluoro-4-((1-methyl-3-indolylcarbonyl)amino)phenyl)acetyl)-(4S)-methylthio-(2S)-pyrrolidinylmethoxy)cyclohexanecarboxylic acid] | – |
| 8.27 | 2500 | C[C@H]1CC[C@@H](CO[C@H]2CC[C@H](C(=O)O)CC2)N1C(=O)Cc1cc(Cl)c(NC(=O)c2cn(C)c3ccccc23)cc1F [Example 136, trans-4-(1-((5-chloro-2-fluoro-4-((1-methyl-3-indolyl)carbonylamino)phenyl)acetyl)-(5S)-methyl-(2S)-pyrrolidinylmethoxy)cyclohexanecarboxylic acid] | – |
| 7.82 | 1260 | COC[C@H]1C[C@@H](CO[C@H]2CC[C@H](C(=O)O)CC2)N(C(=O)Cc2cc(Cl)c(NC(=O)c3cn(C)c4ccccc34)cc2F)C1 [Example 138, trans-4-(1-(5-Chloro-2-fluoro-4-((1-methyl-1H-3-indolylcarbonyl)amino)phenylacetyl)-(4S)-methoxymethyl-(2S)-pyrrolidinylmethoxy)cyclohexanecarboxylic acid] | – |
| 8.04 | 2430 | COC[C@H]1C[C@@H](CO[C@H]2CC[C@H](C(=O)O)CC2)N(C(=O)Cc2cc(Cl)c(NC(=O)c3nn(C)c4ccccc34)cc2F)C1 [Example 139, trans-4-(1-(5-Chloro-2-fluoro-4-((1-methyl-1H-indazole-3-indazolylcarbonyl)amino)phenylacetyl)-(4S)-methoxymethyl-(2S)-pyrrolidinylmethoxy)cyclohexanecarboxylic acid] | – |
| 7.68 | 8820 | COC[C@@H]1CC[C@@H](CO[C@H]2CC[C@H](C(=O)O)CC2)N1C(=O)Cc1cc(Cl)c(NC(=O)c2cn(C)c3ccccc23)cc1F [Example 141, trans-4-((1-(5-Chloro-2-fluoro-4-((1-methyl-3-indolyl)carbonylamino)phenyl)acetyl)-(5S)-methoxymethyl-(2S)-pyrrolidinylmethoxy)cyclohexanecarboxylic acid] | – |
| 8.19 | 2300 | COC[C@H]1CC[C@@H](CO[C@H]2CC[C@H](C(=O)O)CC2)N1C(=O)Cc1cc(Cl)c(NC(=O)c2cn(C)c3ccccc23)cc1F [Example 164, trans-4-(1-((5-Chloro-2-fluoro-4-((1-methyl-3-indolylcarbonyl)amino)phenyl)acetyl)-(5R)-methoxymethyl-(2S)-pyrrolidinylmethoxy)cyclohexanecarboxylic acid] | – |
